Molecules are shown by their SMILES.

What all share (format): cell-based
One assay has as its system TNF-α. Nature of the assay: Inhibition of TNF-α secretion in LPS stimulated peripheral blood mononuclear cells. The conditions noted are these: PBMC; LPS stimulated human peripheral blood mononuclear cells, 18 hours, ELISA; read-out: The median inhibition concentration (IC50, nM) of TNF-α. As to the method: (§1) To study the effect of the compound of the present invention in vitro the inhibition of the IL-1β and TNF-α secretion was measured using the following procedure:
(§2) Cytokine production was measured in the media from lipopolysaccharide (LPS) stimulated peripheral blood mononuclear cells. The mononuclear cells were isolated from human. peripheral blood by Lymphoprep® (Nycomed, Norway) fractionation and suspended in RPMI 1640 (growth medium) with foetal calv serum (FCS, 2%), at a concentration of 5×10^5 cells/ml. The cells were incubated in 24-well tissue culture plates in 1 ml aliquots. Test compounds were dissolved in dimethylsulfoxide (DMSO, 10 mM) and were diluted with the medium. Compounds were added to the cells for 30 minutes, then LPS ([…] final concentration) was added. The plates were incubated for 18 hours, and the concentration of IL-1β and TNF-α in the medium was determined by enzyme-linked immunosorbent assays. The median inhibitory concentrations (IC50) of the compounds were calculated.
A general note: In an ELISA, binding on a coated surface is turned into a signal by an enzyme label.

A further assay concerns PMN-superoxide. Nature of the assay: Inhibition of PMN superoxide secretion (ferricytochrome C reduction). To be noted: human PMN granulocytes primed with TNF-α, stimulated with fMLP; read-out: The median inhibition concentration (IC50, nM) of PMN-superoxide. On the procedure:
The compounds of the present invention also show similar activities in the ability to inhibit PMN (polymorphonuclear) superoxide secretion which is also indicative of potentially useful anti-inflammatory drugs The compounds were tested using the following procedure:
Human polymorphonuclear (PMN) granulocytes were Isolated from human blood by dextran sedimentation, Lymphoprep® fractionation and hypotonic lysis of contaminating erythrocytes.
Superoxide anion generation was measured as the superoxide dismutase inhibitable reduction of ferricytochrome C (Madhu, S. B. et al, Inflammation, 16 241, (1992)). The cells were suspended in Hanks' balanced salt solution, and incubated for 10 minutes at 37° C. with test compounds. The cells were primed by the addition of TNF-α (3 ng/ml final concentration) for 10 minutes, and then ferricytochrome C, (final concentration 750 μg/ml), bovine serum albumin (BSA, final concentration 1 mg/ml) and formyl-methionyl-leucyl-phenylalanine (fMLP, final concentration 10^−7 M) were added for 3 minutes. The cells were chilled on ice, and were spun down. The optical densities in the cell-free supernatant was measured in a spectrophotometer. The median Inhibitory concentration (IC50) of the compounds was calculated.

A further assay deals with IL-1β. Nature of the assay: Inhibition of IL-1β secretion in LPS stimulated peripheral blood mononuclear cells. To be noted: PBMC; LPS stimulated human peripheral blood mononuclear cells, 18 hours, ELISA; read-out: The median inhibition concentration (IC50, nM) of IL-1β. As to the method: as §1, §2

`Cc1ccccc1C(=O)c1ccc(Nc2ccccc2NC(=O)NC2CCCCC2)cc1Cl` [Compound 101, 1-Cyclohexyl-3-[2-[3-chloro-4-(2-methylbenzoyl)-phenylamino]phenyl]urea]: the IC50 with TNF-α came out at 5 nM; with PMN-superoxide, 4 nM; in the assay on IL-1β, 13 nM.

For the compound `CCNC(=O)Nc1ccccc1Nc1ccc(C(=O)c2ccccc2C)c(Cl)c1` [Compound 102, 1-Ethyl-3-[2-[3-chloro-4-(2-methylbenzoyl)-phenylamino]phenyl]urea], the IC50 is 2.2 nM with TNF-α, 13 nM in the assay with PMN-superoxide and 22 nM in the assay with IL-1β.

`CCNC(=O)Nc1cc(F)ccc1Nc1ccc(C(=O)c2ccccc2C)c(Cl)c1` [Compound 114, 1-Ethyl-3-[2-[3-chloro-4-(2-methylbenzoyl)-phenylamino]-5-fluoro-phenyl]urea]: the IC50 with TNF-α worked out at 3.2 nM; in the assay with PMN-superoxide, 4 nM; in the assay on IL-1β, 7.9 nM.

For `CCNC(=O)Nc1ccccc1Nc1ccc(C(=O)c2ccccc2)cc1` [ref. b), 1-Ethyl-3-[2-(4-benzoyl-phenylamino)phenyl]urea, reference compound], the IC50 was 631 nM in the assay on TNF-α, 316 nM in the assay with PMN-superoxide and more than 1000 nM with IL-1β.

(Values after US6750253B1, “Aminobenzophenones as inhibitors of il-1β and tnf-α” (Leo Pharmaceutical Products Ltd. A/S, priority 1999, dated 2004).)
